From PMC7026418, “The kinase polypharmacology landscape of clinical PARP inhibitors” (Scientific Reports, 2020) come the findings set out here.

Holding throughout (test): biochemical
Holding throughout (parameters): DiscoveRx KINOMEscan active site-directed competition binding; percent of control kinase bound to immobilised ligand

One assay addresses T1, FLT3 (Homo sapiens, UniProt P36888).
T1 sequence (P36888 1-993): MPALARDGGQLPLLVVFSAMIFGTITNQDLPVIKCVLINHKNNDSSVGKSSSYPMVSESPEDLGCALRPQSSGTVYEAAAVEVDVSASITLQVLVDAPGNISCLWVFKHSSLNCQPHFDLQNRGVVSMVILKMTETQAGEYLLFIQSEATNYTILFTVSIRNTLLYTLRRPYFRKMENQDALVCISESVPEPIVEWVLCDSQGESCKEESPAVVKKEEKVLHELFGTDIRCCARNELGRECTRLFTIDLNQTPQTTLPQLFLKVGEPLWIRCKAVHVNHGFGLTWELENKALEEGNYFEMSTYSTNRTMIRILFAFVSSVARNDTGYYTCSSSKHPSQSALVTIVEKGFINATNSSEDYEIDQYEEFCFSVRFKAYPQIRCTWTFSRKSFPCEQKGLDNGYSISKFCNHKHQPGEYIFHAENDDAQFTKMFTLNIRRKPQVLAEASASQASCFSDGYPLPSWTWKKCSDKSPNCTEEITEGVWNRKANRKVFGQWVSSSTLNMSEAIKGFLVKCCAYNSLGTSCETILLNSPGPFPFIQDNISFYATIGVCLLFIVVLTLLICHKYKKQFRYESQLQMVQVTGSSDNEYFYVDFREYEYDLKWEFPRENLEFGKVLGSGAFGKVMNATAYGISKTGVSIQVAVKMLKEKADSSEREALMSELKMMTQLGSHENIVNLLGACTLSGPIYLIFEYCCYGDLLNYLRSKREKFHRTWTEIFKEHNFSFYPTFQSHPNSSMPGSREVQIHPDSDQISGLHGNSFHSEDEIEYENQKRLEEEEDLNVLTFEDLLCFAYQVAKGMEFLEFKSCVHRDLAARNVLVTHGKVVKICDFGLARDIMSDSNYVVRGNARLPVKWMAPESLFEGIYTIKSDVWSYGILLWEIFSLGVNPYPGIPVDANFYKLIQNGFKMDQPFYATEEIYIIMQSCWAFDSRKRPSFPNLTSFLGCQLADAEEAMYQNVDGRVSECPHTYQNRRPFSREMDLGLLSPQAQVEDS

In assay [1] the target is T2, JAK2(JH1domain-catalytic) (Homo sapiens, UniProt O60674).
T2 construct: JH1domain-catalytic

A further assay deals with T3, MRCKB (Homo sapiens, UniProt Q9Y5S2).
T3 construct: gene CDC42BPB

For another assay, the target named is T4, IKK-alpha (Homo sapiens, UniProt O15111).
T4 construct: gene CHUK
T4 sequence (O15111 1-745): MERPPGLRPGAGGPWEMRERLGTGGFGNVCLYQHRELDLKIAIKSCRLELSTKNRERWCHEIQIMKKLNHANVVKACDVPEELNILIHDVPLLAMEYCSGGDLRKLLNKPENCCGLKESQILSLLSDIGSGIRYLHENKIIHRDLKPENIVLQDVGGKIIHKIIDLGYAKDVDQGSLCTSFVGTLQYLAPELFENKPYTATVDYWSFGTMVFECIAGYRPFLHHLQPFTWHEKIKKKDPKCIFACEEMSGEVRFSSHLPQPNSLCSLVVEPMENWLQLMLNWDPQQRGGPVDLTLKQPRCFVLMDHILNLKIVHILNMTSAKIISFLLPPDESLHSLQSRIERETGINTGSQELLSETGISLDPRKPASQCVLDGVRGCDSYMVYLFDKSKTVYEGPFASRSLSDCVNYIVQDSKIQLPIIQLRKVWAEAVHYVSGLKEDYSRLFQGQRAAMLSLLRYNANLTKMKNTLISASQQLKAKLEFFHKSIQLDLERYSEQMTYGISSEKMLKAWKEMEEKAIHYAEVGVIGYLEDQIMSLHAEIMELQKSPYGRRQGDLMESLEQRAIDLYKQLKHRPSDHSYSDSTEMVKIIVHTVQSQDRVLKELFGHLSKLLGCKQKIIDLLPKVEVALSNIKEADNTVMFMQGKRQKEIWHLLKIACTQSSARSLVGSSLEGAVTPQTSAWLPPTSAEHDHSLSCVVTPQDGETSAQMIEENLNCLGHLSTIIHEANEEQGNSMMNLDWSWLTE

Assay [2] concerns the target T5, ABL1(T315I)-phosphorylated (Homo sapiens, UniProt P00519, T315I).
T5 construct: phosphorylated

The next assay has as its target T6, MEK6 (Homo sapiens, UniProt P52564).
T6 construct: gene MAP2K6
T6 sequence (P52564 1-334): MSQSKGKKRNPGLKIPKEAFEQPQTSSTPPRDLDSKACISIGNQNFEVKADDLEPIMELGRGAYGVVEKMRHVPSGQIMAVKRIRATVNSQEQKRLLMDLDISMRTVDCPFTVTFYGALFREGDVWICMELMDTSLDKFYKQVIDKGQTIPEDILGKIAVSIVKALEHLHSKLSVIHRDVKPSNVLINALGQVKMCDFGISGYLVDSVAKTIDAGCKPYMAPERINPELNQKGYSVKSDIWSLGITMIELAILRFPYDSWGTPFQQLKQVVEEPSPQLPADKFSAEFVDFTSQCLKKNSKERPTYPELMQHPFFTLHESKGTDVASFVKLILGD

[3] abbreviates: read-out: Rucaparib / %Ctrl @ 10000nM, binding competition, % of control.
Setting [4] is: read-out: Talazoparib (BMN 673) / %Ctrl @ 10000nM.
Where [5] appears, read: read-out: Niraparib (MK-4827) / %Ctrl @ 10000nM.
Where [6] appears, read: read-out: Olaparib / %Ctrl @ 10000nM.

SMILES strings stand for the structures. Read-outs that look alike come from different tables or passages of the source.

T2 sequence (O60674 whole entry): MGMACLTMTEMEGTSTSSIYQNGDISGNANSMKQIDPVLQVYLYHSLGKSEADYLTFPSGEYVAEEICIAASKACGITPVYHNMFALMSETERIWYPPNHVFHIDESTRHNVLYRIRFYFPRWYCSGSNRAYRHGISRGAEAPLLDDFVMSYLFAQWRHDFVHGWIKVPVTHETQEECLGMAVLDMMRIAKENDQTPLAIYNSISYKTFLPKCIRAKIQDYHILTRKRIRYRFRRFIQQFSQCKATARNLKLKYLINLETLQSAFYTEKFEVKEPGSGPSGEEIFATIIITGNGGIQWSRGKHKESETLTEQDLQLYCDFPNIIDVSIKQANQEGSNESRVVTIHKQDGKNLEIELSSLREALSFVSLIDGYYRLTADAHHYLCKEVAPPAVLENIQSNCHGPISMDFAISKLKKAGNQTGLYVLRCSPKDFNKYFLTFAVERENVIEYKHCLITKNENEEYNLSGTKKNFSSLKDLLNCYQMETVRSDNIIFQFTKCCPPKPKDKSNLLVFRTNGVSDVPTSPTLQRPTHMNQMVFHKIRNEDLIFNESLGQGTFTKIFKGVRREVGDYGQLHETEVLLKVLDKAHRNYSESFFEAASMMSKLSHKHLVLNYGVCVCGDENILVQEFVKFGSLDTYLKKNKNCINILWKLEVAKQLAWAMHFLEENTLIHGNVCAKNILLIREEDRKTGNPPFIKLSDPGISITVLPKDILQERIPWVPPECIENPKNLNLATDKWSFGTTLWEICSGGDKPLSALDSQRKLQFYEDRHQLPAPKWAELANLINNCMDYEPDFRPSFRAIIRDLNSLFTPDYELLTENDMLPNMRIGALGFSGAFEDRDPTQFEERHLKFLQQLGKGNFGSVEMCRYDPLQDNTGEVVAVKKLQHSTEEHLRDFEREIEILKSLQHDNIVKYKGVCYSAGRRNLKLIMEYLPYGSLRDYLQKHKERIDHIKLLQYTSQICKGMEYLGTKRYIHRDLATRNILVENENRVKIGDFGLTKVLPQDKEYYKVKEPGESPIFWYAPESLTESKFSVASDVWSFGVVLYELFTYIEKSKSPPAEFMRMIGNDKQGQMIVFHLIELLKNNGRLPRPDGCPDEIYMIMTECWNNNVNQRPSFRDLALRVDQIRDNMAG
T3 sequence (Q9Y5S2 whole entry): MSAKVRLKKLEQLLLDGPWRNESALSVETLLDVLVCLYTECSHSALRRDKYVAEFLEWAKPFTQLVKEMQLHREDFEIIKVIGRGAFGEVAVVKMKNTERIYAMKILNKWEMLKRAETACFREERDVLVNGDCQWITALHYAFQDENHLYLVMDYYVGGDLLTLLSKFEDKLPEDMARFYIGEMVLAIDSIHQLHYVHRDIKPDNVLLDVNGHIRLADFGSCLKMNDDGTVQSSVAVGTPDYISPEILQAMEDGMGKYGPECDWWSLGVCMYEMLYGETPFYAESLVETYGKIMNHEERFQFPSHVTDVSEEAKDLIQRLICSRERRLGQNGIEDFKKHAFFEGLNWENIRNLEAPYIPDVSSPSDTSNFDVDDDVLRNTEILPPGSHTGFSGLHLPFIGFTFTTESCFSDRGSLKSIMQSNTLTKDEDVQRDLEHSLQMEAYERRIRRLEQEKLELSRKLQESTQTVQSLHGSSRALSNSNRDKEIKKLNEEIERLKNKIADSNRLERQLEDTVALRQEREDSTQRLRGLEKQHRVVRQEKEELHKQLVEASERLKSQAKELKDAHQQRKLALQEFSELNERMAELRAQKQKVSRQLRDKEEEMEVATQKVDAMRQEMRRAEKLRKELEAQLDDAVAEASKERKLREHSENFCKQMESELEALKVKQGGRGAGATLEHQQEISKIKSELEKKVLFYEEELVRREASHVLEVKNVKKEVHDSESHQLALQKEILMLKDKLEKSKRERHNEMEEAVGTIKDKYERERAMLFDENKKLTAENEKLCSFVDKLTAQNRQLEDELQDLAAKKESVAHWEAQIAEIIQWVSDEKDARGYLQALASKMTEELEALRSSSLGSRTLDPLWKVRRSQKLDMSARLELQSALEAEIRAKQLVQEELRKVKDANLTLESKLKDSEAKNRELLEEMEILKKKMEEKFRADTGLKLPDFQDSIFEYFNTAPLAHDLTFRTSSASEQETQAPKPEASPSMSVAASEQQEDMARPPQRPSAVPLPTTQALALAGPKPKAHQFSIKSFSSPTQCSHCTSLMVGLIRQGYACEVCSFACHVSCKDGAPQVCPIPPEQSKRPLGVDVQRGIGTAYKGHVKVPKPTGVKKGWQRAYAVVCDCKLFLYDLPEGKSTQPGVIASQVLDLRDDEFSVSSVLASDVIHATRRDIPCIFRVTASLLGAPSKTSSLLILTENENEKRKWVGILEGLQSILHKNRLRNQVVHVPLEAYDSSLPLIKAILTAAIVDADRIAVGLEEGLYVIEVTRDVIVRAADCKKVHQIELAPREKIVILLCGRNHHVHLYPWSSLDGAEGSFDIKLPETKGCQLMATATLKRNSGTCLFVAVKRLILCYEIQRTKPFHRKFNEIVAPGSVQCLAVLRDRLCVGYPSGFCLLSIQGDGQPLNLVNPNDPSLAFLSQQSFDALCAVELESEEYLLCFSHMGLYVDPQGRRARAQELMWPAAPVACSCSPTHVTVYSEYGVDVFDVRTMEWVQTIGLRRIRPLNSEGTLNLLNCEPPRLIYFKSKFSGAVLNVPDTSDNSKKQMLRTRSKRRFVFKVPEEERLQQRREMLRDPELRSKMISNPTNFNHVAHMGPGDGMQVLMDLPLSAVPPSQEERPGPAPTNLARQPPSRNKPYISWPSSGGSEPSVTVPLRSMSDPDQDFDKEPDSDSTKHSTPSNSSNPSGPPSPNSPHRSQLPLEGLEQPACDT

`CNCc1ccc(-c2[nH]c3cc(F)cc4c3c2CCNC4=O)cc1` [Rucaparib]: the “Rucaparib / %Ctrl @ 10000nM” value on FLT3 (binding competition, % of control) worked out at 98%. The percent of control binding at 10 µM in assay [1] (setting [3]) was 70%; on MRCKB (setting [3]), 100%; on IKK-alpha (setting [3]) it was 42%; in assay [2] (setting [3]), 67%; at MEK6 (setting [3]) it was 81%.
Take `Cn1ncnc1[C@H]1c2n[nH]c(=O)c3cc(F)cc(c23)N[C@@H]1c1ccc(F)cc1` [Talazoparib]: the percent of control binding at 10 µM worked out at 94% at FLT3 (setting [4]); 93% in assay [1] (setting [4]); 100% at MRCKB (setting [4]); 100% on IKK-alpha (setting [4]); 100% in assay [2] (setting [4]); 83% on MEK6 (setting [4]).
Regarding `NC(=O)c1cccc2cn(-c3ccc([C@@H]4CCCNC4)cc3)nc12` [Niraparib], the percent of control binding at 10 µM on FLT3 (setting [5]) stood at 70%; in assay [1] (setting [5]), 82%; at MRCKB (setting [5]), 98%; on IKK-alpha (setting [5]), 100%; in assay [2] (setting [5]), 95%; on MEK6 (setting [5]) it was 95%.
As for `O=C(c1cc(Cc2n[nH]c(=O)c3ccccc23)ccc1F)N1CCN(C(=O)C2CC2)CC1` [Olaparib], the percent of control binding at 10 µM on FLT3 (setting [6]) amounted to 100%; in assay [1] (setting [6]), 78%; at MRCKB (setting [6]), 100%; at IKK-alpha (setting [6]), 79%; in assay [2] (setting [6]), 87%; at MEK6 (setting [6]), 86%.
